# Measurements taken from US20260125370A1, “SULFOXIMINE COMPOUNDS AS HISTONE DEACETYLASE 6 INHIBITOR, AND PHARMACEUTICAL COMPOSITION COMPRISING THE SAME” (CHONG KUN DANG PHARMACEUTICAL CORP., priority 2022, published 2026).
# Experiments:
# human recombinant HDAC6 = target: T1, human recombinant HDAC6 (Homo sapiens, UniProt Q9UBN7); test: HDAC6 enzyme activity inhibition (fluorimetric, in vitro); assay type: biochemical; details: samples at 0.1, 1, 10, 100 and 1000 nM
# T1 construct: purchased Calbiochem 382180
# T1 sequence (Q9UBN7 1-1215): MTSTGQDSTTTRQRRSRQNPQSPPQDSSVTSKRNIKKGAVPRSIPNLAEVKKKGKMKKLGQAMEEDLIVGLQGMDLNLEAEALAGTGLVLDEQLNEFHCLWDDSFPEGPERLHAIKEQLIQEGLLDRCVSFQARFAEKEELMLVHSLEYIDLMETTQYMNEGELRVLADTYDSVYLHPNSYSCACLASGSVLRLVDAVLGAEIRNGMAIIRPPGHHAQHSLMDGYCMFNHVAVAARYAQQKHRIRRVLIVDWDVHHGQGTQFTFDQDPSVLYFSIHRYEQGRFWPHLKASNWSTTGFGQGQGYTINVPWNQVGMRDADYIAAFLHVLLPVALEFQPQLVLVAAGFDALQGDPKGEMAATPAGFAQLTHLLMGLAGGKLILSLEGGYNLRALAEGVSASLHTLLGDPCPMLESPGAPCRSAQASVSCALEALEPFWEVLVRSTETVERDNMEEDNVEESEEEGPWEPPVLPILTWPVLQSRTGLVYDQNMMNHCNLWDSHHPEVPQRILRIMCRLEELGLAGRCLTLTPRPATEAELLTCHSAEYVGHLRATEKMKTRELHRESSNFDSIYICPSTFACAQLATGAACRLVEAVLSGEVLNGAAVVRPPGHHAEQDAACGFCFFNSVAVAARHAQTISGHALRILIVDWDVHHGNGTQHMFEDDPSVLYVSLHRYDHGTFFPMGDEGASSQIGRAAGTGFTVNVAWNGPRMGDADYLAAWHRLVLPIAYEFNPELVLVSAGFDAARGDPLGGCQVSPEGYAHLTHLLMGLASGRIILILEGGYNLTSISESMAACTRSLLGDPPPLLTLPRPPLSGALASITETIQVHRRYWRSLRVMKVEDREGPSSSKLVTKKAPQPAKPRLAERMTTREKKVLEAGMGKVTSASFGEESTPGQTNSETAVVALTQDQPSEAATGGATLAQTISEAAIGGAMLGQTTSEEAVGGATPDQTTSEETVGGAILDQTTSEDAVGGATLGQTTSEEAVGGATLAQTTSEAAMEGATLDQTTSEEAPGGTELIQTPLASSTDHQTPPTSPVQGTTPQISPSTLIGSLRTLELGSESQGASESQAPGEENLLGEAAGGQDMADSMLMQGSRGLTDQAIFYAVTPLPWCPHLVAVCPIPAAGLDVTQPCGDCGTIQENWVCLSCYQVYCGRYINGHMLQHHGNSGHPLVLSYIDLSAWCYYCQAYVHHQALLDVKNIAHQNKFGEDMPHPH
# Experimental: (§1) A HDAC enzyme inhibitory capacity of a test material was measured by using HDAC1 Fluorimetric Drug Discovery Assay Kit (Enzolifesciences: BML-AK511) and HDAC6 human recombinant (Calbiochem: 382180). For a HDAC1 assay, samples were treated at a concentration of 100, 1000 and 10000 nM. For a HDAC6 assay, samples were treated at a concentration of 0.1, 1, 10, 100 and 1000 nM.
# (§2) For the test on the HDAC1 enzyme activity, human recombinant HDAC1 (BML-SE456) was used as a zymogen and Fluor de Lys®-SIRT1 (BNL-KI177) was used as a substrate. A 5-fold dilution of the compound was divided into a 96-well plate, after which 0.3 μg of the enzyme and […] of the substrate were inserted into each well and subjected to reaction at 37° C. for 60 minutes, such that Fluor de Lys® Developer II (BML-K1176) was inserted thereinto and subjected to reaction for 30 minutes and finished. After that, a fluorescence value (Ex 360, Em 460) was measured with a multi-plate reader (FlexStation 3, Molecular Device). An experiment on HDAC6 enzyme was conducted in accordance with the same protocol as in the HDAC1 enzyme activity test method by using human recombinant HDAC6 (382180) of Calbiochem Inc. For final result values, each IC50 value was calculated with GraphPad Prism 4.0 program.
# human recombinant HDAC1 = target: T2, human recombinant HDAC1 (Homo sapiens, UniProt Q13547); test: HDAC1 enzyme activity inhibition (HDAC1 Fluorimetric Drug Discovery Assay Kit, in vitro); assay type: biochemical; details: samples at 100, 1000 and 10000 nM
# T2 construct: purchased Enzolifesciences BML-SE456
# T2 sequence (Q13547 whole entry): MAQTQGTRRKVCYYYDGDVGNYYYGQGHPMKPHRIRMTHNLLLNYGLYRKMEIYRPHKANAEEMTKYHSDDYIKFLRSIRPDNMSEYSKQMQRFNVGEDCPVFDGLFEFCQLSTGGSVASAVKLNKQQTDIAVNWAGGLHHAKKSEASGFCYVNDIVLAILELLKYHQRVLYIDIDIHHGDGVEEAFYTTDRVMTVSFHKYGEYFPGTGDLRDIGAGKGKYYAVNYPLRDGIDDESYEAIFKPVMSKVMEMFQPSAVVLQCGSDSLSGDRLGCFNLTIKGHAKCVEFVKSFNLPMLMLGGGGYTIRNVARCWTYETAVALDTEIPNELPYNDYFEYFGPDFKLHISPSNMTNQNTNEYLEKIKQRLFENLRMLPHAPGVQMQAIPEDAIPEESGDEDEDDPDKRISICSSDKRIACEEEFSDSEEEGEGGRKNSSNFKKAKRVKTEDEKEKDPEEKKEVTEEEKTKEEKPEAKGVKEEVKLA
# Experimental: as §1, §2
Compound,IC50 (human recombinant HDAC6) [nM],IC50 (human recombinant HDAC1) [nM]
"N=S1(=O)CCN(C(=O)N(Cc2ccc(-c3nnc(C(F)F)o3)cc2F)c2cccc(C(F)(F)F)c2)CC1 [Compound 31, N-(4-(5-(difluoromethyl)-1,3,4-oxadiazol-2-y1)-2-fluorobenzyl)-1-imino-N-(3-(trifluoromethyl)phenyl)thiomorpholin-4-carboxamide 1-oxide]",91.4,> 10000
"Cc1cccc(N(Cc2ccc(-c3nnc(C(F)F)o3)cc2F)C(=O)N2CCS(=N)(=O)CC2)c1 [Compound 32, N-(4-(5-(difluoromethyl)-1,3,4-oxadiazol-2-y1)-2-fluorobenzyl)-1-imino-N-(m-tolyl)thiomorpholin-4-carboxamide 1-oxide]",80.6,> 10000
"N=S1(=O)CCN(C(=O)N(Cc2ccc(-c3nnc(C(F)F)o3)cc2F)c2cc(F)ccc2F)CC1 [Compound 33, N-(4-(5-(difluoromethyl)-1,3,4-oxadiazol-2-y1)-2-fluorobenzyl)-N-(2,5-difluorophenyl)-1-iminothiomorpholin-4-carboxamide 1-oxide]",51.3,> 10000
"N=S1(=O)CCN(C(=O)N(Cc2ccc(-c3nnc(C(F)F)o3)cc2F)c2cccc(-n3cccc3)c2)CC1 [Compound 34, N-(3-(1H-pyrrol-1-yl)phenyl)-N-(4-(5-(difluoromethyl)-1,3,4-oxadiazol-2-y1)-2-fluorobenzyl)-1-iminothiomorpholin-4-carboxamide 1-oxide]",91.5,> 10000
"N=S1(=O)CCN(S(=O)(=O)N(Cc2ccc(-c3nnc(C(F)F)o3)cc2F)c2cccc(F)c2)CC1 [Compound 35, N-(4-(5-(difluoromethyl)-1,3,4-oxadiazol-2-yl)-2-fluorobenzyl)-N-(3-fluorophenyl)-1-iminothiomorpholin-4-sulfonamide 1-oxide]",59.7,> 10000
"N=S1(=O)CCN(S(=O)(=O)N(Cc2ccc(-c3nnc(C(F)F)o3)cn2)c2cccc(F)c2)CC1 [Compound 36, N-((5-(5-(difluoromethyl)-1,3,4-oxadiazol-2-yl)pyridin-2-yl)methyl)-N-(3-fluorophenyl)-1-iminothiomorpholin-4-sulfonamide 1-oxide]",30.8,> 10000
"CS(=O)(=O)N=S1(=O)CCN(C(=O)N(Cc2ccc(-c3nnc(C(F)F)o3)cc2F)c2ccccc2)CC1 [Compound 37, N-(4-(5-(difluoromethyl)-1,3,4-oxadiazol-2-yl)-2-fluorobenzyl)-1-((methylsulfonyl)imino)-N-phenylthiomorpholin-4-carboxamide 1-oxide]",61.3,> 10000
"COC(=O)N=S1(=O)CCN(C(=O)N(Cc2ccc(-c3nnc(C(F)F)o3)cc2F)c2ccccc2)CC1 [Compound 38, Methyl (4-((4-(5-(difluoromethyl)-1,3,4-oxadiazol-2-yl)-2-fluorobenzyl)(phenyl)carbamoyl)-1-oxidothiomorpholin-1-ylidene)carbamate]",67.2,> 10000
"CN=S1(=O)CCN(C(=O)N(Cc2ccc(-c3nnc(C(F)F)o3)cc2F)c2ccccc2)CC1 [Compound 39, N-(4-(5-(difluoromethyl)-1,3,4-oxadiazol-2-yl)-2-fluorobenzyl)-1-(methylimino)-N-phenylthiomorpholin-4-carboxamide 1-oxide]",80.8,> 10000
"CC(=O)N=S1(=O)CCN(C(=O)N(Cc2ccc(-c3nnc(C(F)F)o3)cc2F)c2ccccc2)CC1 [Compound 40, 1-(acetylimino)-N-(4-(5-(difluoromethyl)-1,3,4-oxadiazol-2-yl)-2-fluorobenzyl)-N-phenylthiomorpholin-4-carboxamide 1-oxide]",84.8,> 10000
"N=S1(=O)CCN(C(=O)N(Cc2ccc(-c3nnc(C(F)F)o3)cc2F)c2cccc(Br)c2)CC1 [Compound 41, N-(3-bromophenyl)-N-(4-(5-(difluoromethyl)-1,3,4-oxadiazol-2-yl)-2-fluorobenzyl)-1-iminothiomorpholin-4-carboxamide 1-oxide]",28.9,> 10000
"N=S1(=O)CCN(C(=O)N(Cc2ccc(-c3nnc(C(F)F)o3)cc2F)c2ccc(Cl)c(Cl)c2)CC1 [Compound 42, N-(3,4-dichlorophenyl)-N-(4-(5-(difluoromethyl)-1,3,4-oxadiazol-2-yl)-2-fluorobenzyl)-1-iminothiomorpholin-4-carboxamide 1-oxide]",37.7,> 10000
"N=S1(=O)CCN(C(=O)N(Cc2ccc(-c3nnc(C(F)F)o3)cc2F)c2cccc(-c3cncs3)c2)CC1 [Compound 43, N-(4-(5-(difluoromethyl)-1,3,4-oxadiazol-2-yl)-2-fluorobenzyl)-1-imino-N-(3-(thiazole-5-yl)phenyl)thiomorpholin-4-carboxamide 1-oxide]",88.9,> 10000
"N=S1(=O)CCN(C(=O)N(Cc2ccc(-c3nnc(C(F)F)o3)cc2F)c2cccc(-c3ccco3)c2)CC1 [Compound 44, N-(4-(5-(difluoromethyl)-1,3,4-oxadiazol-2-yl)-2-fluorobenzyl)-N-(3-(furan-2-yl)phenyl)-1-iminothiomorpholin-4-carboxamide 1-oxide]",130,> 10000
"N=S1(=O)CCN(C(=O)N(Cc2ccc(-c3nnc(C(F)F)o3)cn2)c2cc(F)ccc2F)CC1 [Compound 45, N-((5-(5-(difluoromethyl)-1,3,4-oxadiazol-2-yl)pyridin-2-yl)methyl)-N-(2,5-difluorophenyl)-1-iminothiomorpholin-4-carboxamide 1-oxide]",63.6,> 10000
"N=S1(=O)CCN(C(=O)N(Cc2ncc(-c3nnc(C(F)F)o3)cc2F)c2cc(F)ccc2F)CC1 [Compound 46, N-((5-(5-(difluoromethyl)-1,3,4-oxadiazol-2-yl)-3-fluoropyridin-2-yl)methyl)-N-(2,5-difluorophenyl)-1-iminothiomorpholin-4-carboxamide 1-oxide]",65.9,> 10000
"N=S1(=O)CCN(C(=O)N(Cc2ccc(-c3nnc(C(F)F)o3)cc2F)c2cccc(-c3cccnc3)c2)CC1 [Compound 47, N-(4-(5-(difluoromethyl)-1,3,4-oxadiazol-2-yl)-2-fluorobenzyl)-1-imino-N-(3-(pyridin-3-yl)phenyl)thiomorpholin-4-carboxamide 1-oxide]",185,> 10000
"N=S1(=O)CCC(N2C[C@@H]3C[C@H]2CN3C(=O)N(Cc2ccc(-c3nnc(C(F)F)o3)cn2)c2ccccc2F)CC1 (stereo partly drawn) [Compound 48, (1S,4S)—N-((5-(5-(difluoromethyl)-1,3,4-oxadiazol-2-yl)pyridin-2-yl)methyl)-N-(2-fluorophenyl)-5-(1-imino-1-oxidotetrahydro-2H-thiopyran-4-yl)-2,5-diazabicyclo[2.2.1]heptan-2-carboxamide]",113,> 10000
"N=S1(=O)CCN(C(=O)N(Cc2ccc(-c3nnc(C(F)F)o3)cn2)c2ccc(Cl)cc2Cl)CC1 [Compound 49, N-(2,4-dichlorophenyl)-N-((5-(5-(difluoromethyl)-1,3,4-oxadiazol-2-yl)pyridin-2-yl)methyl)-1-iminothiomorpholin-4-carboxamide 1-oxide]",77.7,> 10000
